Data reported in US20250064864A1, “MICROBIAL STRAIN OF LACHNOSPIRACEAE, DRUG FOR PREVENTING OR TREATING TUMORS AND USE” (MOON (GUANGZHOU) BIOTECH CO., LTD., priority 2021, published 2025).
Like-named read-outs stand apart in the source and are kept apart here.

Experiments:
[1] = test system: MNH 46686 strain; test: Antibiotic susceptibility test by disk diffusion method; assay type: cell-based, Lachnospiraceae sp. MNH 46686; conditions: for Diameter of inhibition zone: against MNH 46686 strain
Description: 2.4 Antibiotic Susceptibility Test of MNH 46686 Strain by Disk Diffusion Method

[2] = test system: IFNβ; test: THP-1 IFNβ-promoter reporter (luciferase) assay; assay type: cell-based; conditions: 20 μM, 40 μM and 80 μM, 24 h
Description: Interferon (IFN) […] are a group of cytokines secreted by host cells, which can regulate immune responses. Interferons are produced under stimulation by viruses, bacterial endotoxins, synthetic double-stranded RNAs, etc. Macrophages, lymphocytes, somatic cells, etc., in the human body can all produce interferons, in which IFNβ belongs to type I interferons and can promote the activities of NK cells, macrophages, and T lymphocytes. […] Furthermore, the MNH 46686 strain of the present disclosure has been experimentally verified to be able to promote the expression of IFNβ, thereby exerting anti-viral, anti-tumor, immunomodulatory, and other effects. In order to verify whether MNH 46686 can promote the expression of IFNβ, the constructed THP-1 cells (a cell line established by Moon Co.) carrying the IFNβ-promoter reporter were used in this study to evaluate the effect of MNH 46686 on the transcriptional activity of IFNβ. […]
The THP-1-IFNβ-promoter reporter cells were inoculated in a 96-well plate, with 1×10^5 cells per well. […] The chemiluminescence values were detected with a microplate reader. The relative luminescence values were normalized to the untreated group and compared with the relative luminescence readings of the High group to evaluate the effect of MNH 46686 on the transcriptional activity of IFNβ.

CC1(C)S[C@@H]2[C@H](NC(=O)[C@H](N)c3ccccc3)C(=O)N2[C@H]1C(=O)O [Ampicillin]
Note (susceptibility of MNH 46686 strain to the antibiotic) [1]: Resistant | Diameter of inhibition zone [1]: 0.00 mm | Note (susceptibility of MNH 46686 strain to the antibiotic) ([1]; listed as ampicillin): resistant

CO/N=C(\C(=O)N[C@@H]1C(=O)N2C(C(=O)O)=C(CSc3nc(=O)c(=O)[nH]n3C)CS[C@H]12)c1csc(N)n1 [Ceftriaxone]
Note (susceptibility of MNH 46686 strain to the antibiotic) [1]: Resistant | Diameter of inhibition zone [1]: 0.00 mm | Note (susceptibility of MNH 46686 strain to the antibiotic) ([1]; listed as ceftriaxone): resistant

O=C(N[C@H](CO)[C@H](O)c1ccc([N+](=O)[O-])cc1)C(Cl)Cl [Chloramphenicol]
Note (susceptibility of MNH 46686 strain to the antibiotic) [1]: Sensitive | Diameter of inhibition zone [1]: 18.45 mm | Note (susceptibility of MNH 46686 strain to the antibiotic) ([1]; listed as chloramphenicol): sensitive

O=C(O)c1cn(C2CC2)c2cc(N3CCNCC3)c(F)cc2c1=O [Ciprofloxacin]
Note (susceptibility of MNH 46686 strain to the antibiotic) [1]: Resistant | Diameter of inhibition zone [1]: 0.00 mm | Note (susceptibility of MNH 46686 strain to the antibiotic) ([1]; listed as ciprofloxacin): resistant

CC[C@H]1OC(=O)[C@H](C)[C@@H](O[C@H]2C[C@@](C)(OC)[C@@H](O)[C@H](C)O2)[C@H](C)[C@@H](O[C@@H]2O[C@H](C)C[C@H](N(C)C)[C@H]2O)[C@](C)(O)C[C@@H](C)C(=O)[C@H](C)[C@@H](O)[C@]1(C)O [Erythromycin]
Note (susceptibility of MNH 46686 strain to the antibiotic) [1]: Resistant | Diameter of inhibition zone [1]: 0.00 mm | Note (susceptibility of MNH 46686 strain to the antibiotic) ([1]; listed as erythromycin): resistant

CCC[C@@H]1C[C@@H](C(=O)N[C@@H]([C@H]2O[C@H](SC)[C@H](O)[C@@H](O)[C@H]2O)[C@@H](C)O)N(C)C1 [Lincomycin]
Note (susceptibility of MNH 46686 strain to the antibiotic) [1]: Resistant | Diameter of inhibition zone [1]: 0.00 mm | Note (susceptibility of MNH 46686 strain to the antibiotic) ([1]; listed as lincomycin): resistant

COc1cc2cc(C(=O)CCC(=O)O)sc2cc1OC [MSA-2]
response of the IFNβ reporter system to the positive drug [2]: good response

CN(C)[C@@H]1C(O)=C(C(N)=O)C(=O)[C@@]2(O)C(O)=C3C(=O)c4c(O)cccc4[C@@](C)(O)[C@H]3C[C@@H]12 [Tetracycline]
Diameter of inhibition zone [1]: 12.01 mm

Gentamicin
Note (susceptibility of MNH 46686 strain to the antibiotic) [1]: Sensitive | Diameter of inhibition zone [1]: 10.90 mm | Note (susceptibility of MNH 46686 strain to the antibiotic) ([1]; listed as gentamicin): sensitive

Penicillin
Note (susceptibility of MNH 46686 strain to the antibiotic) [1]: Sensitive | Diameter of inhibition zone [1]: 19.69 mm | Note (susceptibility of MNH 46686 strain to the antibiotic) ([1]; listed as penicillin): sensitive

Trimethoprim-sulfamethoxazole
Note (susceptibility of MNH 46686 strain to the antibiotic) [1]: Resistant | Diameter of inhibition zone [1]: 0.00 mm | Note (susceptibility of MNH 46686 strain to the antibiotic) ([1]; listed as trimethoprim-sulfamethoxazole): resistant
